Literature values as cited in patent publication US6413950B1, “Pharmaceutical preparation containing dithranol” (esparma GmbH, priority 1999, dated 2002).

Conditions: background statement on the active agent dithranol

O=C1c2c(O)cccc2Cc2cccc(O)c21 [Dithranol]
solubility in water: not soluble in water
